# Test results published in patent US8163768B2, “1,4-dihydropyridine-fused heterocycles, process for preparing the same, use and compositions containing them” (Aventis Pharma S.A.., priority 2005, dated 2012).
# Experiments:
# [1] = molecular target: T1, Aurora1 (Aurora-B) (Homo sapiens, UniProt Q96GD4); experiment: Aurora 1 (Aurora B) kinase radioactivity scintillation assay using nickel chelate Flash plates; format: biochemical; conditions: 10 nM Aurora-B (co expressed with C3 fragment of INCEP), 500 nM NuMA substrate, 1 μM ATP with [33P] ATP, 5 mM MgCl2, 30 minutes, 37° C.
# T1 construct: Aurora-B: the full length protein (His tagged in N-terminal) has been co expressed in SF9 cells; poly-histidine (N); made in house; host or cells: SF9 cells
# T1 sequence (Q96GD4 whole entry, species assumed, the tested form may be a part): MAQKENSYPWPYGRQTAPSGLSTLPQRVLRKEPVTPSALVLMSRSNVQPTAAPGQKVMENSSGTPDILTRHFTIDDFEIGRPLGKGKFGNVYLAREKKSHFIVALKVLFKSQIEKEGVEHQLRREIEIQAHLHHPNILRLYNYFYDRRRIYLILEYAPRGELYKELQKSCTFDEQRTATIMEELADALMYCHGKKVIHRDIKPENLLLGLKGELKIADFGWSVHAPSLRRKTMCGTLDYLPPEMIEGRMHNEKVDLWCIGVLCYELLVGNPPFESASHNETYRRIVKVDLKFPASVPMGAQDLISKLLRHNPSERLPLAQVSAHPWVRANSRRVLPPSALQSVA
# T1 sequence (Q9NQS7 821-918 partner limits assumed, species assumed): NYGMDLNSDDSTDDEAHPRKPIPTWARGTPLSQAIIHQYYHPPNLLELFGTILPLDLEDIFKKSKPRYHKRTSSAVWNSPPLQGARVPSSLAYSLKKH
# Method: (§1) Aurora 1 and 2 (Respectively. Aurora B and A)
# (§2) The inhibitory effect of compounds with respect to the Aurora 1 and 2 kinases is determined with a radioactivity scintillation assay using nickel chelate.
# (§3) The kinase activity of Aurora is measured by the phosphorylation of NuMA-histidine substrate in the presence of radiolabelled ATP ([^33P] ATP) using 96 well Flash plates where the nickel-chelate is linked to the surface of the microplate. The amount of ^33P incorporated to the substrate NuMA is proportional to the aurora activity.
# (§4) The Flash plates used are nickel-chelate 96 well plates (Perkin Elmer, model SMP107).
# (§5) The products to be evaluated are incubated in a 100 μl reaction volume per well in the presence of 10 nM of Aurora-B or Aurora-A, 500 nM of NuMA substrate in the following buffer: 50 mM of NaCl, 5 mM MgCl2, (Aurora-B) or 10 mM MgCl2 (Aurora-A) and 1 mM of DTT at 37° C.
# (§6) 80 μL of enzyme/substrate incubation buffer is distributed in each well, followed by 10 μL of solution of compound to be measured with various concentrations. The reaction is started by adding 1 μM of ATP (final concentration) containing 0.2 μCi of [^33P] ATP (10 μL). After 30 minutes of incubation the reaction is stopped by removal of the reaction mixture and each well is washed twice with 300 μl of buffer Tris/HCl. The radioactivity is measured in each well using a Packard Top count scintillation counter instrument.
# (§7) The enzymatic activity is expressed as counts per minute obtained in 30 minutes after subtraction of the background noise (reaction medium without enzyme). The measurement is expressed as percentage of inhibition of Aurora activity versus the control. To generate IC50 values, compounds of the invention are tested at different concentration and the percentage of inhibition are plotted as function of compound concentration, IC50s are calculated using the Xlfit 4 curve fitting software.
# [2] = molecular target: T2, Aurora2 (Aurora-A) (Homo sapiens, UniProt O14965); experiment: Aurora 2 (Aurora A) kinase radioactivity scintillation assay using nickel chelate Flash plates; format: biochemical; conditions: 10 nM Aurora-A, 500 nM NuMA substrate, 1 μM ATP with [33P] ATP, 10 mM MgCl2, 30 minutes, 37° C.
# T2 construct: Aurora-A: the full length recombinant protein including an N-terminal poly-histidine tail has been expressed in E. coli; poly-histidine (N); made in house; host or cells: E. coli
# T2 sequence (O14965 1-403): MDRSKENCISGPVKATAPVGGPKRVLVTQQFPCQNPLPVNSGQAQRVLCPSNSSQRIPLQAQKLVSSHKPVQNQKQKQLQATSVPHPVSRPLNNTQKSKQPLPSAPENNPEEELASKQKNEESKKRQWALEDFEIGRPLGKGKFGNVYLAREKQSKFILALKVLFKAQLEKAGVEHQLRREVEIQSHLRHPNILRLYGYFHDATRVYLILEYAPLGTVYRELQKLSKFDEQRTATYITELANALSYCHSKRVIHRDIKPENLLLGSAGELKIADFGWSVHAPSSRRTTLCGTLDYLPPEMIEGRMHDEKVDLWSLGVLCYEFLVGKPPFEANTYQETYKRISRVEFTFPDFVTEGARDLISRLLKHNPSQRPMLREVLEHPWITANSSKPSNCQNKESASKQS
# Method: as §1, §2, §3, §4, §5, §6, §7
SMILES,IC50 [1],IC50 [2]
"O=C1CCCC2=C1[C@H](c1ccc(Sc3nc4ccccc4[nH]3)o1)c1c[nH]nc1N2 (single isomer, unassigned) [120b (−), 4-[5-(1H-Benzimidazol-2-ylsulfanyl)-furan-2-yl]-1,4,6,7,8,9-hexahydro-pyrazolo[3,4-b]quinolin-5-one]",75 nM,–
"O=C1CCCC2=C1C(c1ccc(Sc3nc4ccccc4[nH]3)o1)c1cn[nH]c1N2 (centres unmarked) [Example 3, 4-[5-(1H-Benzimidazol-2-ylsulfanyl)-furan-2-yl]-1,4,6,7,8,9-hexahydro-pyrazolo[3,4-b]quinolin-5-one]",8 nM,–
"O=C1CNCC2=C1C(c1ccc(Sc3nc4ccccc4[nH]3)o1)c1c[nH]nc1N2 (centres unmarked) [Example 20, 4-[5-(1H-Benzimidazol-2-ylsulfanyl)-furan-2-yl]-2,4,6,7,8,9-hexahydro-pyrazolo[3,4-b]-1,7-naphthyridin-5-one; compound with trifluoro-acetic acid]",83 nM,–
"O=C1CC(c2ccccc2)CC2=C1C(c1ccc(Sc3nc4ccccc4[nH]3)o1)c1c[nH]nc1N2 (centres unmarked) [Example 29, 4-[5-(1H-Benzimidazol-2-ylsulfanyl)-furan-2-yl]-7-phenyl-2,4,6,7,8,9-hexahydro-pyrazolo[3,4-b]quinolin-5-one; compound with trifluoro-acetic acid]",36 nM,100 nM
"COc1ccc(C2CC(=O)C3=C(C2)Nc2n[nH]cc2C3c2ccc(Sc3nc4ccccc4[nH]3)o2)cc1 (centres unmarked) [Example 32, 4-[5-(1H-Benzimidazol-2-ylsulfanyl)-furan-2-yl]-7-(4-methoxy-phenyl)-2,4,6,7,8,9-hexahydro-pyrazolo[3,4-b]quinolin-5-one; compound with trifluoro-acetic acid]",50 nM,125 nM
"O=C1CC(c2ccc(Cl)cc2Cl)CC2=C1C(c1ccc(Sc3nc4ccccc4[nH]3)o1)c1c[nH]nc1N2 (centres unmarked) [Example 33, 4-[5-(1H-Benzimidazol-2-ylsulfanyl)-furan-2-yl]-7-(2,4-dichloro-phenyl)-2,4,6,7,8,9-hexahydro-pyrazolo[3,4-b]quinolin-5-one; compound with trifluoro-acetic acid]",32 nM,179 nM
O=C1CCCC2=C1C(c1ccc(Sc3ccccn3)o1)c1c[nH]nc1N2 (centres unmarked) [Example 40],3400 nM,–
"O=C(Nc1ccc(Cl)cc1)Nc1cccc(C2C3=C(CNCC3=O)Nc3n[nH]cc32)c1 (centres unmarked) [Example 67, 1-(4-Chloro-phenyl)-3-[3-(5-Oxo-2,4,6,7,8,9-hexahydro-pyrazolo[3,4b]-1,7-naphthyridin-4-yl)-phenyl]-urea; compound with trifluoro-acetic acid]",–,2000 nM
"Cn1c(Sc2ccc(C3C4=C(CNCC4=O)Nc4n[nH]cc43)o2)nc2ccccc21 (centres unmarked) [Example 83, 4-[5-(1-Methyl-1H-benzimidazol-2-ylsulfanyl)-furan-2-yl]-2,4,6,7,8,9-hexahydro-pyrazolo[3,4-b]-1,7-naphthyridin-5-one; compound with trifluoro-acetic acid]",5020 nM,–
"CCOC(=O)c1[nH]cc2c1NC1=C(C(=O)CC(C)(C)C1)C2c1ccc(Sc2nc3ccccc3[nH]2)o1 (centres unmarked) [Example 106, 9-[5-(1H-Benzimidazol-2-ylsulfanyl)-furan-2-yl]-6,6-dimethyl-8-oxo-4,5,6,7,8,9-hexahydro-2H-pyrrolo[3,4-b]quinoline-3-carboxylic acid ethyl ester]",31 nM,–
"CCOC(=O)c1[nH]cc2c1NC1=C(C(=O)CCC1)C2c1ccc(Sc2nc3c(F)c(F)c(F)cc3[nH]2)o1 (centres unmarked) [Example 122, 8-Oxo-9-[5-(4,5,6-trifluoro-1H-benzimidazol-2-ylsulfanyl)-furan-2-yl]-4,5,6,7,8,9-hexahydro-2H-pyrrolo[3,4-b]quinoline-3-carboxylic acid ethyl ester]",7 nM,–
"CCOC(=O)c1[nH]cc2c1NC1=C(C(=O)CCC1)C2c1ccc(Sc2nc3cc(Cl)ccc3[nH]2)o1 (centres unmarked) [Example 129, 9-[5-(5-Chloro-1H-benzimidazol-2-ylsulfanyl)-furan-2-yl]-8-oxo-4,5,6,7,8,9-hexahydro-2H-pyrrolo[3,4-b]quinoline-3-carboxylic acid ethyl ester]",10 nM,–
"CCOC(=O)c1[nH]cc2c1NC1=C(C(=O)CCC1)C2c1ccc(Sc2nc3cc(F)ccc3[nH]2)o1 (centres unmarked) [Example 148, 9-[5-(5-Fluoro-1H-benzimidazol-2-ylsulfanyl)-furan-2-yl]-8-oxo-4,5,6,7,8,9-hexahydro-2H-pyrrolo[3,4-b]quinoline-3-carboxylic acid ethyl ester]",11 nM,–

# Further compounds by falling IC50 [1], results first:
IC50 [1],IC50 [2],SMILES
7 nM,–,"CCOC(=O)c1[nH]cc2c1NC1=C(C(=O)CNC1)C2c1ccc(Sc2nc3ccccc3[nH]2)o1 (centres unmarked) [Example 104, 9-[5-(1H-Benzimidazol-2-ylsulfanyl)-furan-2-yl]-8-oxo-4,5,6,7,8,9-hexahydro-2H-pyrrolo[3,4-b]-1,7-naphthyridine-3-carboxylic acid ethyl ester; compound with trifluoro-acetic acid]"
7 nM,–,"CCOC(=O)c1[nH]cc2c1NC1=C(C(=O)CCC1)C2c1ccc(Sc2nc3ccc(F)c(F)c3[nH]2)o1 (centres unmarked) [Example 121, 9-[5-(6,7-Difluoro-1H-benzimidazol-2-ylsulfanyl)-furan-2-yl]-8-oxo-4,5,6,7,8,9-hexahydro-2H-pyrrolo[3,4-b]quinoline-3-carboxylic acid ethyl ester]"
6 nM,–,"CCOC(=O)c1[nH]cc2c1NC1=C(C(=O)CCC1)C2c1ccc(Sc2nc3cc(F)c(F)cc3[nH]2)o1 (centres unmarked) [Example 114, 9-[5-(5,6-Difluoro-1H-benzimidazol-2-ylsulfanyl)-furan-2-yl]-8-oxo-4,5,6,7,8,9-hexahydro-2H-pyrrolo[3,4-b]quinoline-3-carboxylic acid ethyl ester]"
5 nM,17 nM,"CC1CC(=O)C2=C(C1)Nc1n[nH]cc1C2c1ccc(Sc2nc3ccccc3[nH]2)o1 (centres unmarked) [Example 28, 4-[5-(1H-Benzimidazol-2-ylsulfanyl)-furan-2-yl]-7-methyl-2,4,6,7,8,9-hexahydro-pyrazolo[3,4-b]quinolin-5-one; compound with trifluoro-acetic acid]"
5 nM,20 nM,"CC1(C)CCC2=C(C1=O)C(c1ccc(Sc3nc4ccccc4[nH]3)o1)c1c[nH]nc1N2 (centres unmarked) [Example 30, 4-[5-(1H-Benzimidazol-2-ylsulfanyl)-furan-2-yl]-6,6-dimethyl-2,4,6,7,8,9-hexahydro-pyrazolo[3,4-b]quinolin-5-one; compound with trifluoro-acetic acid]"
4 nM,–,"O=C1CCCC2=C1[C@H](c1ccc(Sc3nc4ccccc4[nH]3)o1)c1c[nH]nc1N2 (single isomer, unassigned) [120a (+), 4-[5-(1H-Benzimidazol-2-ylsulfanyl)-furan-2-yl]-1,4,6,7,8,9-hexahydro-pyrazolo[3,4-b]quinolin-5-one]"
4 nM,15 nM,"CC1(C)CC(=O)C2=C(C1)Nc1n[nH]cc1C2c1ccc(Sc2nc3ccccc3[nH]2)o1 (centres unmarked) [Example 4, 4-[5-(1H-Benzimidazol-2-ylsulfanyl)-furan-2-yl]-7,7-dimethyl-2,4,6,7,8,9-hexahydro-pyrazolo[3,4-b]quinolin-5-one]"
4 nM,14 nM,"CC(C)C1CC(=O)C2=C(C1)Nc1n[nH]cc1C2c1ccc(Sc2nc3ccccc3[nH]2)o1 (centres unmarked) [Example 31, 4-[5-(1H-Benzimidazol-2-ylsulfanyl)-furan-2-yl]-7-isopropyl-2,4,6,7,8,9-hexahydro-pyrazolo[3,4-b]quinolin-5-one; compound with trifluoro-acetic acid]"
3 nM,–,"CCOC(=O)c1[nH]cc2c1NC1=C(C(=O)CCC1)C2c1ccc(Sc2nc3c(F)cc(F)cc3[nH]2)o1 (centres unmarked) [Example 142, 9-[5-(4,6-Difluoro-1H-benzimidazol-2-ylsulfanyl)-furan-2-yl]-8-oxo-4,5,6,7,8,9-hexahydro-2H-pyrrolo[3,4-b]quinoline-3-carboxylic acid ethyl ester]"
